The values below come from patent US20240401144A2, “PRIMER-PROBE COMPOSITION, KIT, AND DETECTION METHOD” (ASCENTAWITS PHARMACEUTICALS, LTD., priority 2021, published 2024).

The structures appear in SMILES notation.

Common to all, as to format: cell-based
Test [1] relates to THP-1 hematological cancer cell line. The test can be described thus: Ex vivo proliferation assay, hematological cancer cell lines, 72 h. As to conditions: Homo sapiens; Table 6: THP-1, 72 h of exposure. Here is the method:
(§1) Exponentially growing cells were inoculated. After 24 h, the test compound OBI-3424 was added. After addition of the test compound OBI-3424, plates were incubated in a standard tissue incubator at 37° C. for the indicated hours. At the end of the experiment, viable cells were detected using the CellTiter Glo (CTG) assay kit or AlamarBlue. Drug concentrations (IC50) resulting in 50% growth inhibition relative to untreated control were calculated using XLfit (IDBS, Boston, MA) or Prism 6 (GraphPad, San Diego, CA).
(§2) After exposing the hematological cancer cell lines to compound OBI-3424 for 72 h, the IC50 value was determined by ex vivo proliferation assay. The expression data of AKR1C3 RNA in hematological cancer cell lines was from CrownBio database (https://db.crownbio.com/Crownbio/OncoExpress_Login.aspx).

Test [2] concerns P31/FUJ hematological cancer cell line. The test is described as above. As to conditions: Homo sapiens; Table 6: P31/FUJ, 72 h of exposure. The procedure: as §1, §2
Test [3] has as its system PF-382 hematological cancer cell line. Described as above. As to conditions: Homo sapiens; Table 6: PF-382, 72 h of exposure. Here is the method:
as §1, §2

Test [4] has as its system TALL-1 hematological cancer cell line. The test is described as above. As to conditions: Homo sapiens; Table 6: TALL-1, 72 h of exposure. Here is the method: as §1, §2
The subject of test [5] is KG-1 hematological cancer cell line. Described as above. As to conditions: Homo sapiens; Table 6: KG-1, 72 h of exposure. Here is the method: as §1, §2
In test [6] the test system is CCRF-CEM hematological cancer cell line. The test is described as above. As to conditions: Homo sapiens; Table 6: CCRF-CEM, 72 h of exposure. The procedure:
as §1, §2

Test [7] deals with Jurkat hematological cancer cell line. Described as above. As to conditions: Homo sapiens; Table 6: Jurkat, 72 h of exposure. The procedure: as §1, §2
Test [8] concerns SUP-T1 hematological cancer cell line. Described as above. As to conditions: Homo sapiens; Table 6: SUP-T1, 72 h of exposure. Here is the method:
as §1, §2

Test [9] relates to Kasumi-1 hematological cancer cell line. The description is as above. As to conditions: Homo sapiens; Table 6: Kasumi-1, 72 h of exposure. Here is the method: as §1, §2
In test [10] the test system is TF-1 hematological cancer cell line. The test is described as above. As to conditions: Homo sapiens; Table 6: TF-1, 72 h of exposure. The procedure:
as §1, §2

In test [11] the test system is HEL hematological cancer cell line. The description is as above. As to conditions: Homo sapiens; Table 6: HEL, 72 h of exposure. The procedure: as §1, §2
Another test concerns ALL cell lines. In words: Ex vivo cytotoxicity in ALL cell lines (summary). As to conditions: Homo sapiens. The procedure: Leukemia cell lines were suspended in RPMI medium supplemented with FBS (Biosera), while ALL PDX cells were cultured in QBSF medium (Quality Biological Inc.,) supplemented with Flt-3 ligand (20 ng/ml, BioNovus Life Sciences) or IL7 (10-20 ng/ml, Jomar Life Research). Cells were inoculated according to the optimal cell density and incubated for 3h or overnight (37° C., 5% CO2). PDX cells and leukemia cell lines were treated with OBI-3424 ([…]) or medium control for 48 or 72 h, respectively. Viability was determined using Alamar Blue reduction assay or Cell Titer-Glo Luminescent Cell Viability Assay (Promega). The half-maximal inhibitory concentration (IC50) was used to calculate the interpolation of nonlinear regression curves by GraphPad Prism 7 software.
The expression levels of AKR1C3 protein was determined by Western blot analysis. The ex vivo cytotoxicity of OBI-3424 was determined using CellTiter-Glo assay and calculated as 50% maximum inhibitory concentration (IC50).

In a further test the test system is NCI-H23 NSCLC cell line. In words: Ex vivo proliferation assay, 72 h exposure. As to conditions: Homo sapiens; NCI-H23, 72 h of exposure; read-out: 3424 IC50. The procedure:
as §1
(§3) After exposing the hepatocellular carcinoma cell lines to compound OBI-3424 for 96 h and exposing the NSCLC cell lines to compound OBI-3424 for 72 h, the IC50 value was determined by ex vivo proliferation assay, and the expression of AKR1C3 protein in hepatocellular carcinoma cell lines was determined by Western blotting (tubulin was used as loading control). The expression data of AKR1C3 RNA in the hepatocellular carcinoma cell lines and in the NSCLC cell lines were from CrownBio database (https://db.crownbio.com/Crownbio/OncoExpress_Login.aspx).

The test system of test [12] is NCI-H2110 NSCLC cell line. In words: Ex vivo proliferation assay, 72 h exposure. As to conditions: Homo sapiens; NCI-H2110, 72 h of exposure; read-out: 3424 IC50. Here is the method: as §1, §3
For a further test, the system named is NCI-H522 NSCLC cell line. The test can be described thus: Ex vivo proliferation assay, 72 h exposure. As to conditions: Homo sapiens; NCI-H522, 72 h of exposure; read-out: 3424 IC50. The procedure: as §1, §3
For test [13], the system named is NCI-H2228 NSCLC cell line. In words: Ex vivo proliferation assay, 72 h exposure. As to conditions: Homo sapiens; NCI-H2228, 72 h of exposure; read-out: 3424 IC50. Here is the method:
as §1, §3

For another test, the system named is NCIH1755 NSCLC cell line. The test can be described thus: Ex vivo proliferation assay, 72 h exposure. As to conditions: Homo sapiens, NCI-H1755; NCIH1755, 72 h of exposure; read-out: 3424 IC50. Here is the method: as §1, §3
The test system of test [14] is NCI-H1563 NSCLC cell line. In words: Ex vivo proliferation assay, 72 h exposure. As to conditions: Homo sapiens; NCI-H1563, 72 h of exposure; read-out: 3424 IC50. Here is the method: as §1, §3
Test [15] has as its system NCI-H1944 NSCLC cell line. The test can be described thus: Ex vivo proliferation assay, 72 h exposure. As to conditions: Homo sapiens; NCI-H1944, 72 h of exposure; read-out: 3424 IC50. Here is the method:
as §1, §3

Another test deals with NCIH2106 NSCLC cell line. The test can be described thus: Ex vivo proliferation assay, 72 h exposure. As to conditions: Homo sapiens; NCIH2106, 72 h of exposure; read-out: 3424 IC50. The procedure: as §1, §3
Test [16] concerns NCI-H1792 NSCLC cell line. The test can be described thus: Ex vivo proliferation assay, 72 h exposure. As to conditions: Homo sapiens; NCI-H1792, 72 h of exposure; read-out: 3424 IC50. Here is the method:
as §1, §3

For `C[C@H](OP(=O)(N1CC1)N1CC1)c1ccc([N+](=O)[O-])c(Oc2cccc(C(=O)N(C)C)c2)c1` [OBI-3424], the IC50 was not below 1000 nM in test [1]; not below 1000 nM in test [2]; 6 nM in [3]; 24 nM in [4]; 153 nM in test [5]; 1.7 nM in test [6]. The IC50 in test [7] is 51.1 nM; in test [8] it was 3.9 nM; in [9] it was not below 1000 nM; in test [10], 16.8 nM; in test [11] it was 224 nM; with ALL cell lines (6 types of cell lines expressing high (strong) levels of AKR1C3), 3 to 30 nM. Moreover, the IC50 is 3 to 84 nM in the test on ALL cell lines (cell lines with medium AKR1C3 expression levels); more than 1000 nM with NCI-H23 NSCLC cell line; 1.1 nM in test [12]; more than 1000 nM in the test with NCI-H522 NSCLC cell line; 0.21 nM in test [13]; 8.2 nM in the test with NCIH1755 NSCLC cell line. Further, the IC50 in test [14] is 2.5 nM; in test [15], 2.3 nM; in the test on NCIH2106 NSCLC cell line it was more than 1000 nM; in test [16], 4.5 nM.
